Reference: PubChem BioAssay AID1963982 (Molecular Pharmacology Branch, DTP, NCI, 2024)
Each block holds one compound with its values, some of them ahead of it.

System: 313798-341-R-J2-PDC spheroids, viability
Test: Anticancer human tumor 313798-341-R-J2-PDC patient-derived cervical squamous cell carcinoma cell line growth inhibition [PI3K]
Settings: spheroids with HUVEC and MSC; for IC50: curve of first compound; for viability, T/C: stronger effect = lower value
In short: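 Spheroid viability read-out. Co-cultures contained the tumor line plus HUVEC and human MSCs. Each agent was paired with a PI3K inhibitor (inavolisib, alpelisib, duvelisib, copanlisib) across half-log dilutions starting at clinical Cmax, or at 10 microM when Cmax was unknown.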

[1] = second compound 0.00316 µM, first compound 0.0316 µM
[2] = second compound 0.00316 µM, first compound 0.1 µM
[3] = second compound 0.00316 µM, first compound 0.316 µM
[4] = second compound 0.00316 µM, first compound 1 µM
[5] = second compound 0.00316 µM, first compound 3.16 µM
[6] = second compound 0.00316 µM, first compound 10 µM
[7] = second compound 0.01 µM, first compound 0.0316 µM
[8] = second compound 0.01 µM, first compound 0.1 µM
[9] = second compound 0.01 µM, first compound 0.316 µM
[10] = second compound 0.01 µM, first compound 1 µM
[11] = second compound 0.01 µM, first compound 3.16 µM
[12] = second compound 0.01 µM, first compound 10 µM
[13] = second compound 0.0316 µM, first compound 0.0316 µM
[14] = second compound 0.0316 µM, first compound 0.1 µM
[15] = second compound 0.0316 µM, first compound 0.316 µM
[16] = second compound 0.0316 µM, first compound 1 µM
[17] = second compound 0.0316 µM, first compound 3.16 µM
[18] = second compound 0.0316 µM, first compound 10 µM
[19] = second compound 0.1 µM, first compound 0.0316 µM
[20] = second compound 0.1 µM, first compound 0.1 µM
[21] = second compound 0.1 µM, first compound 0.316 µM
[22] = second compound 0.1 µM, first compound 1 µM
[23] = second compound 0.1 µM, first compound 3.16 µM
[24] = second compound 0.1 µM, first compound 10 µM
[25] = second compound 0.316 µM, first compound 0.0316 µM
[26] = second compound 0.316 µM, first compound 0.1 µM
[27] = second compound 0.316 µM, first compound 0.316 µM
[28] = second compound 0.316 µM, first compound 1 µM
[29] = second compound 0.316 µM, first compound 3.16 µM
[30] = second compound 0.316 µM, first compound 10 µM
[31] = second compound 1 µM, first compound 0.0316 µM
[32] = second compound 1 µM, first compound 0.1 µM
[33] = second compound 1 µM, first compound 0.316 µM
[34] = second compound 1 µM, first compound 1 µM
[35] = second compound 1 µM, first compound 3.16 µM
[36] = second compound 1 µM, first compound 10 µM
[37] = second compound 0.00316 µM, first compound 0.00316 µM
[38] = second compound 0.00316 µM, first compound 0.01 µM
[39] = second compound 0.01 µM, first compound 0.00316 µM
[40] = second compound 0.01 µM, first compound 0.01 µM
[41] = second compound 0.0316 µM, first compound 0.00316 µM
[42] = second compound 0.0316 µM, first compound 0.01 µM
[43] = second compound 0.1 µM, first compound 0.00316 µM
[44] = second compound 0.1 µM, first compound 0.01 µM
[45] = second compound 0.316 µM, first compound 0.00316 µM
[46] = second compound 0.316 µM, first compound 0.01 µM
[47] = second compound 1 µM, first compound 0.00316 µM
[48] = second compound 1 µM, first compound 0.01 µM
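Note: spheroids exposed to compounds for seven days.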
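Throughout, for viability, T/C: 100% = DMSO vehicle control viability.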

IC50 (second compound 0.00316 µM): 2.25 µM
IC50 (second compound 0.01 µM): 1.85 µM
IC50 (second compound 0.0316 µM): 2.38 µM
IC50 (second compound 0.1 µM): 1.91 µM
IC50 (second compound 0.316 µM): 0.805 µM
IC50 (second compound 1 µM): 0.0749 µM
SMILES: CC(C)NCC(C(=O)N1CCN(c2ncnc3c2C(C)CC3O)CC1)c1ccc(Cl)cc1 (stereo not drawn) + CC(Nc1ccc2c(c1)OCCn1cc(N3C(=O)OCC3C(F)F)nc1-2)C(N)=O
viability, T/C [1]: 107%
viability, T/C [2]: 94.9%
viability, T/C [3]: 81%
viability, T/C [4]: 68.6%
viability, T/C [5]: 40.5%
viability, T/C [6]: 25.9%
viability, T/C [7]: 107%
viability, T/C [8]: 103%
viability, T/C [9]: 93.5%
viability, T/C [10]: 61.1%
viability, T/C [11]: 41.1%
viability, T/C [12]: 30.2%
viability, T/C [13]: 106%
viability, T/C [14]: 92.5%
viability, T/C [15]: 82.2%
viability, T/C [16]: 69.5%
viability, T/C [17]: 41.3%
viability, T/C [18]: 25.6%
viability, T/C [19]: 121%
viability, T/C [20]: 99.6%
viability, T/C [21]: 80.9%
viability, T/C [22]: 62.5%
viability, T/C [23]: 39.5%
viability, T/C [24]: 27.2%
viability, T/C [25]: 84.6%
viability, T/C [26]: 84.2%
viability, T/C [27]: 62.3%
viability, T/C [28]: 46.7%
viability, T/C [29]: 35.4%
viability, T/C [30]: 26%
viability, T/C [31]: 53%
viability, T/C [32]: 50.2%
viability, T/C [33]: 42.1%
viability, T/C [34]: 38.2%
viability, T/C [35]: 30.5%
viability, T/C [36]: 25.5%

IC50 (second compound 0.00316 µM): > 1 µM
IC50 (second compound 0.01 µM): > 1 µM
IC50 (second compound 0.0316 µM): > 1 µM
IC50 (second compound 0.1 µM): > 1 µM
IC50 (second compound 0.316 µM): > 1 µM
IC50 (second compound 1 µM): > 1 µM
SMILES: CCN1CCN(Cc2ccc(Nc3ncc(F)c(-c4cc(F)c5nc(C)n(C(C)C)c5c4)n3)nc2)CC1 + CC(Nc1ccc2c(c1)OCCn1cc(N3C(=O)OCC3C(F)F)nc1-2)C(N)=O
viability, T/C [37]: 102%
viability, T/C [38]: 104%
viability, T/C [1]: 99.3%
viability, T/C [2]: 105%
viability, T/C [3]: 123%
viability, T/C [4]: 131%
viability, T/C [39]: 94.9%
viability, T/C [40]: 102%
viability, T/C [7]: 96.8%
viability, T/C [8]: 125%
viability, T/C [9]: 138%
viability, T/C [10]: 120%
viability, T/C [41]: 103%
viability, T/C [42]: 104%
viability, T/C [13]: 117%
viability, T/C [14]: 115%
viability, T/C [15]: 133%
viability, T/C [16]: 110%
viability, T/C [43]: 115%
viability, T/C [44]: 103%
viability, T/C [19]: 90.2%
viability, T/C [20]: 107%
viability, T/C [21]: 101%
viability, T/C [22]: 86.1%
viability, T/C [45]: 86.1%
viability, T/C [46]: 76.7%
viability, T/C [25]: 71.4%
viability, T/C [26]: 75.7%
viability, T/C [27]: 77.7%
viability, T/C [28]: 61.7%
viability, T/C [47]: 57.3%
viability, T/C [48]: 48.3%
viability, T/C [31]: 52.3%
viability, T/C [32]: 56.8%
viability, T/C [33]: 52.7%
viability, T/C [34]: 58%

IC50 (second compound 0.00316 µM): 0.97 µM
IC50 (second compound 0.01 µM): 1.04 µM
IC50 (second compound 0.0316 µM): 0.889 µM
IC50 (second compound 0.1 µM): 0.822 µM
IC50 (second compound 0.316 µM): 0.535 µM
IC50 (second compound 1 µM): 0.19 µM
SMILES: Cn1ncc(Cl)c1-c1cc(C(=O)NC(CN)Cc2cccc(F)c2)sc1Cl (stereo not drawn) + CC(Nc1ccc2c(c1)OCCn1cc(N3C(=O)OCC3C(F)F)nc1-2)C(N)=O
viability, T/C [1]: 117%
viability, T/C [2]: 91.3%
viability, T/C [3]: 94.2%
viability, T/C [4]: 48.3%
viability, T/C [5]: 34.4%
viability, T/C [6]: 38.6%
viability, T/C [7]: 97.3%
viability, T/C [8]: 102%
viability, T/C [9]: 75.5%
viability, T/C [10]: 52.4%
viability, T/C [11]: 38.1%
viability, T/C [12]: 35.6%
viability, T/C [13]: 102%
viability, T/C [14]: 107%
viability, T/C [15]: 84.5%
viability, T/C [16]: 46.8%
viability, T/C [17]: 35.1%
viability, T/C [18]: 34.9%
viability, T/C [19]: 114%
viability, T/C [20]: 95.7%
viability, T/C [21]: 67.6%
viability, T/C [22]: 47.4%
viability, T/C [23]: 35.2%
viability, T/C [24]: 36.8%
viability, T/C [25]: 74.6%
viability, T/C [26]: 69.6%
viability, T/C [27]: 57.9%
viability, T/C [28]: 41.4%
viability, T/C [29]: 32.8%
viability, T/C [30]: 35.7%
viability, T/C [31]: 59.8%
viability, T/C [32]: 56.1%
viability, T/C [33]: 44.7%
viability, T/C [34]: 37.2%
viability, T/C [35]: 28.7%
viability, T/C [36]: 32.2%

IC50 (second compound 0.00316 µM): > 0.1 µM
IC50 (second compound 0.01 µM): > 0.1 µM
IC50 (second compound 0.0316 µM): > 0.1 µM
IC50 (second compound 0.1 µM): > 0.1 µM
IC50 (second compound 0.316 µM): > 0.1 µM
IC50 (second compound 1 µM): 0.0225 µM
SMILES: Cn1ncnc1[C@H]1c2n[nH]c(=O)c3cc(F)cc(c23)N[C@@H]1c1ccc(F)cc1 + CC(Nc1ccc2c(c1)OCCn1cc(N3C(=O)OCC3C(F)F)nc1-2)C(N)=O
viability, T/C (second compound 0.00316 µM, first compound 0.000316 µM): 104%
viability, T/C (second compound 0.00316 µM, first compound 0.001 µM): 96.2%
viability, T/C [37]: 99.1%
viability, T/C [38]: 98.1%
viability, T/C [1]: 94.9%
viability, T/C [2]: 84.7%
viability, T/C (second compound 0.01 µM, first compound 0.000316 µM): 95.7%
viability, T/C (second compound 0.01 µM, first compound 0.001 µM): 104%
viability, T/C [39]: 88.5%
viability, T/C [40]: 93.5%
viability, T/C [7]: 92.8%
viability, T/C [8]: 83.5%
viability, T/C (second compound 0.0316 µM, first compound 0.000316 µM): 107%
viability, T/C (second compound 0.0316 µM, first compound 0.001 µM): 102%
viability, T/C [41]: 115%
viability, T/C [42]: 106%
viability, T/C [13]: 100%
viability, T/C [14]: 100%
viability, T/C (second compound 0.1 µM, first compound 0.000316 µM): 102%
viability, T/C (second compound 0.1 µM, first compound 0.001 µM): 102%
viability, T/C [43]: 91.7%
viability, T/C [44]: 89%
viability, T/C [19]: 96.9%
viability, T/C [20]: 72.8%
viability, T/C (second compound 0.316 µM, first compound 0.000316 µM): 77.2%
viability, T/C (second compound 0.316 µM, first compound 0.001 µM): 78%
viability, T/C [45]: 78.3%
viability, T/C [46]: 73.6%
viability, T/C [25]: 71.3%
viability, T/C [26]: 58.1%
viability, T/C (second compound 1 µM, first compound 0.000316 µM): 57.5%
viability, T/C (second compound 1 µM, first compound 0.001 µM): 57%
viability, T/C [47]: 58.3%
viability, T/C [48]: 48.1%
viability, T/C [31]: 52.1%
viability, T/C [32]: 38.1%
